In general, logP refers to the decadic logarithm of the partition coefficient of the neutral form, usually between octanol and water. Read a low logP as lower lipophilicity. The solubility is the concentration that dissolves in the medium under given conditions.

Values after ≈ are worked out from the molar mass of the structure shown. Counter-ions that a name gives are not always drawn. Like-named read-outs stand apart in the source and are kept apart here.

What all share (type): physicochemical
Data set [1] is described as follows: Log P (free base). The text has this: (§1) Table 1 Physical/chemical properties of MK-A.
Data set [2] can be described thus: Solubility in H2O, SGF and FaSSIF.
Text: as §1

A short description of data set [3]: Solid-state chemical/physical stability of drug forms. To be noted: chemical and physical.
Text: as §1

Data set [4] can be described thus: Chemical stability under accelerated conditions (% area). On the procedure: The stability of various formulations of MK-A was evaluated under accelerated conditions (Table 4). Levels of potency reduction right after the solid dispersion preparation were 1.7% and 4.6% for spray drying and hot melt extrusion, respectively. The higher potency reduction in HME was attributed to the higher processing temperature of the HME process (~140 °C) at which thermal degradation of the drug occurred. The potency of the amorphous form of active was further reduced after 2 weeks storage at 40 °C/75% relative humidity (RH) conditions in closed glass vials by up to as much as 8.5% loss of potency in the solid dispersion via HME.

The mark [5] stands for this setting: Fasted Simulated Small Intestine Fluid (FaSSIF).

In data set [1], `CS[C@@]1(C(=O)Nc2ccc3[nH]nc(-c4ccc(OC(C)C)nc4)c3c2)CCN(CC(=O)N2CC=C(c3ccc(-c4ncn(C)n4)cc3)CC2)C1` [MK-A HCl salt] had a logP of 4.5. Besides, the solubility is 21 µg/mL in data set [2] (setting [5]); 525 µg/mL in data set [2] (simulated gastric fluid (SGF), simulated gastric fluid, Simulated Gastric Fluid (SGF), read-out: Solubility); 661 µg/mL in data set [2] (water, pH 3.5, water, H2O (pH = 3.5), read-out: Solubility). Besides, the Stability entry in data set [3] was “Chemically stable in the solid-state; Physically stable at various temperatures and humidity conditions but sensitive to mechanical stress”.

Turning to `CS[C@@]1(C(=O)Nc2ccc3[nH]nc(-c4ccc(OC(C)C)nc4)c3c2)CCN(CC(=O)N2CC=C(c3ccc(-c4ncn(C)n4)cc3)CC2)C1` [MK-A free base], the “2 Weeks at 40 °C/75% RH Closed (% Area)” value in data set [4] (2 weeks, 40 °C/75% RH, closed glass vials) is listed as 98.8 % Area. Besides, in data set [4] (initial, after preparation), the “Initial (% Area)” value is reported as 98.8 % Area. The “Log P (free base)” value in data set [1] worked out at 4.5. Moreover, the solubility was 2 µg/mL (≈ 2.89 µM) in data set [2] (setting [5]); 907 µg/mL (≈ 1310 µM) in data set [2] (Simulated Gastric Fluid (SGF)); 0.3 µg/mL (≈ 0.434 µM) in data set [2] (water, pH 7.3, water, H2O (pH = 7.3), read-out: Solubility). The Stability result in data set [3] was “Chemically and physically stable”.

Source of the values: article PMC6160931, “Processing Impact on Performance of Solid Dispersions” (Pharmaceutics, 2018).
